Assay results: patent US20140378422A1, “Combination of a RTK inhibitor with an anti-estrogen and use thereof for the treatment of cancer” (NOVARTIS AG, priority 2012, published 2014)

Columns and labels:
CAMA-1 cell line = test: CAMA-1 cell proliferation, CellTiter-Glo Luminescent Cell Viability Assay, dose matrix analysed with Chalice Analyzer; type: cell-based; conditions: standard media, 72 hrs, FIG. 2A
Description: Cell lines were grown at 37° C. and 5% CO2.
24 hours following plating, 20 ul of each compound dilution series was transferred to plates containing the cells, resulting in compound concentration ranges from 50 nM to 4000 nM by 3-fold dilutions and a final DMSO concentration of 0.16%. The total volume in each well was 100 ul and each dose matrix was tested in triplicate on separate assay plates.
The average and standard deviation percent inhibition relative to DMSO treated control for triplicate compound-treated wells at each concentration of compounds was determined and up-loaded to Chalice Analyzer Database.

metastatic breast cancer = test: Clinical trial of Compound A as single agent in metastatic breast cancer patients; type: in vivo, human; conditions: preliminary results

Structure (SMILES) | concentrations with a modest effect on proliferation as a single agent (CAMA-1 cell line) [µM] | unconfirmed partial responses (metastatic breast cancer; patients with FGF amplified disease (FGFR1 and/or FGFR2 and/or FGF3 amplification)) | patients with stable disease for greater than 24 weeks and/or a partial response that was not confirmed at four weeks (metastatic breast cancer; patients with FGF amplified disease) | patients with stable disease greater than 24 weeks (metastatic breast cancer; patients with FGF-pathway non-amplified disease)
C[C@]12CC[C@@H]3c4ccc(O)cc4C[C@@H](CCCCCCCCC[S+]([O-])CCCC(F)(F)C(F)(F)F)[C@H]3[C@@H]1CC[C@@H]2O (stereo partly drawn) [Fulvestrant, (7α,17β)-7-[9-[(4,4,5,5,5-Pentafluoropentyl)sulfinyl]nonyl]estra-1,3,5(10)-triene-3,17-diol] | ≥ 0.049 | – | – | –
CN1CCN(c2ccc3nc(-c4c(N)c5c(F)cccc5[nH]c4=O)[nH]c3c2)CC1 [Compound A, 4-amino-5-fluoro-3-[5-(4-methylpiperazin-1-yl)-1H-benzimidazol-2-yl]quinolin-2(1H)-one] | – | 3 | five | 3
